According to the Kinase Knowledgebase extract (Sharma et al. 2016):

What was measured:
EGFR = EGFR (UniProt P00533)
EGFR (murine) [1] = target: EGFR (murine) (UniProt P00533); conditions: for IC50: her 14
EGFR (murine) [2] = target: EGFR (murine) (UniProt P00533); conditions: her 14

EGFR (murine), sequence (P00533 whole entry, looked up): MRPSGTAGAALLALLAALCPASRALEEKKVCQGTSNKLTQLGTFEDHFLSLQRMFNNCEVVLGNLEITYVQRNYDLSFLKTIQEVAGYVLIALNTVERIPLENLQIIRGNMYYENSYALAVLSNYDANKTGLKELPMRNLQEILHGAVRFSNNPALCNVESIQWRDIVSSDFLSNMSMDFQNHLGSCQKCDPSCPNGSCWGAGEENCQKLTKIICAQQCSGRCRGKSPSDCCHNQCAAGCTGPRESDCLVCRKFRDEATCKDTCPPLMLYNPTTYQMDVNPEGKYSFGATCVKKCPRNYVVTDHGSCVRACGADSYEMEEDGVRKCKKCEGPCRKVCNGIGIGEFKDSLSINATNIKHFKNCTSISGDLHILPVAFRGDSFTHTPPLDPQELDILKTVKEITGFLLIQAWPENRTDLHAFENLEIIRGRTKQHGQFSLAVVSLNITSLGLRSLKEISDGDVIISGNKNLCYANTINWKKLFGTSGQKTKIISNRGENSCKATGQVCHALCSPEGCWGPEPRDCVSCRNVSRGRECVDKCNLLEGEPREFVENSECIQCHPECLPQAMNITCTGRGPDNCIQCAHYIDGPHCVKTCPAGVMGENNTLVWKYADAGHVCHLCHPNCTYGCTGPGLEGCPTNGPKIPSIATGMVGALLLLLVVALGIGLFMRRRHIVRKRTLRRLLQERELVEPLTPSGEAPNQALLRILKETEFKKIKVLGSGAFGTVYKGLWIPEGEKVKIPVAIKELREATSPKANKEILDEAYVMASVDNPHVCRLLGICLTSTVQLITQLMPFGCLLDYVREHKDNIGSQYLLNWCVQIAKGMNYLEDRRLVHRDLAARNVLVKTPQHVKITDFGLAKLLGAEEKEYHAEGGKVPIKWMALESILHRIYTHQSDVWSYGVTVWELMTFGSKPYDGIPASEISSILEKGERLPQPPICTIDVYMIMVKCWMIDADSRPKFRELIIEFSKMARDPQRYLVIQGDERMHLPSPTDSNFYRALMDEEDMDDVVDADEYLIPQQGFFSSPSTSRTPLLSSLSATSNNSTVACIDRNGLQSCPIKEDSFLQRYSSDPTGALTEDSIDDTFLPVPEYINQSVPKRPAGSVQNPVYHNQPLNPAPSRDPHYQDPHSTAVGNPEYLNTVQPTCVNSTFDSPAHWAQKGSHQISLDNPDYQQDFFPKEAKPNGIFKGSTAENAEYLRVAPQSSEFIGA
EGFR, sequence (P00533 whole entry, looked up): as above

Compound	IC50 (EGFR) [µM]	IC50 (EGFR (murine) [1]) [µM]	IC50 (EGFR (murine) [2]) [µM]	inhibition (EGFR (murine) [1]; her 14, dose or concentration not given here) [%]
COc1cc(C=C(C#N)C#N)ccc1O	200			
N#C/C(=C\c1ccc(O)c(O)c1)C(N)=O	10	60	15	
N#C/C(=C\c1ccc(O)c(O)c1)C(=O)N1CCc2ccccc21		100	25	
N#CC(C#N)=C1CCc2cc(O)c(O)cc21		> 150	30	
N#C/C(=C\c1ccc(O)c(O)c1)C(=O)NCCCc1ccccc1		25	2.5	
N#C/C(=C\c1ccc(O)c(O)c1)C(=O)c1ccc([N+](=O)[O-])cc1		< 20	20	
CC(NC(=O)/C(C#N)=C/c1ccc(O)c(O)c1)c1ccccc1 (stereo not given)		10	3.5	0.88
N#C/C(=C/c1ccc(O)c(O)c1)C(=O)NCc1ccccc1			3.5	
N#C/C(=C\c1ccc(O)c(O)c1)C(=O)c1ccc(F)cc1		80	20	
N#C/C(=C\c1ccc(O)c(O)c1)C(=O)NC1CCCCC1		50		
N#CC(C#N)=Cc1cc[n+]([O-])cc1	1300			
N#C/C(=C\c1ccc(O)c(O)c1)C(=O)c1ccccc1		120	15	
N#CC(C#N)=C1C(=O)Nc2ccc([N+](=O)[O-])cc21			20	
N#C/C(=C\c1ccc(O)c(O)c1)C(=O)Nc1ccccc1Cl		12	35	
N#C/C(=C\c1ccc(O)c(O)c1)C(=O)NCCCCc1ccccc1		10	3	
COc1cc2c(cc1O)NC(=O)C2=C(C#N)C#N			≥ 120	
N#CC(C#N)=Cc1cccc(O)c1	375			
Cc1cccc(C)c1NC(=O)/C(C#N)=C/c1ccc(O)c(O)c1		> 20		
N#CC(C#N)=Cc1ccc2[nH]ccc2c1			> 100	
Cc1ccc(C(=O)/C(C#N)=C/c2ccc(O)c(O)c2)cc1		100	7	
N#CC(C#N)=C1C(=O)Nc2cc(O)c(O)cc21			> 16	
N#C/C(=C/c1ccc(O)c(O)c1)C(=O)NC1CCCCC1			15	
